Values quoted from earlier work as cited in US20230364078A1, “METHOD OF PREPARING NANOPARTICLES COMPRISING POORLY WATER SOLUBLE DRUGS FOR TREATING HEPATITIS” (priority 2022, published 2023).

Key:
[1] = parameters: key: Class 1 has high solubility and permeability; Class 2 has low solubility but good permeability; Class 3 has high solubility but low permeability; Class 4 has low solubility and permeability; settings: water solubility and intestinal permeability
[2] = non-nanosized drug
[3] = solvent ethanol

solubility in water [2]	SMILES	BCS class [1]	solubility to ethanol [3] [mg/mL]
insoluble in water	COC(=O)N[C@H](C(=O)N1CCC[C@H]1c1ncc(-c2ccc(-c3ccc(-c4cnc([C@@H]5CCCN5C(=O)[C@@H](NC(=O)OC)C(C)C)[nH]4)cc3)cc2)[nH]1)C(C)C [Formula 1, Daclatasvir]	2	148
very little soluble in water	C=C[C@@H]1C[C@]1(NC(=O)[C@@H]1C[C@@H](Oc2ncc(OC)c3ccc(Cl)cc23)CN1C(=O)[C@@H](NC(=O)OC(C)(C)C)C(C)(C)C)C(=O)NS(=O)(=O)C1CC1 [Formula 3, Asunaprevir]	2	100
–	COC[C@H]1C[C@@H](c2nc(-c3ccc4c(c3)COc3cc5c(ccc6nc([C@@H]7CC[C@H](C)N7C(=O)[C@@H](NC(=O)OC)C(C)C)[nH]c65)cc3-4)c[nH]2)N(C(=O)[C@H](NC(=O)OC)c2ccccc2)C1 [Formula 4, Velpatasvir]	4	30

SMILES	solubility in water [2]	BCS class [1]	solubility to ethanol [3] [mg/mL]
C=C[C@@H]1C[C@]1(NC(=O)[C@@H]1C[C@@H]2CN1C(=O)[C@H](C(C)(C)C)NC(=O)O[C@@H]1C[C@H]1CCCCCc1nc3ccc(OC)cc3nc1O2)C(=O)NS(=O)(=O)C1CC1 [Formula 2, Grazoprevir]	very little soluble in water	2	15
